Tests used:
[1] = tested on: GAr-based inhibition of translation; assay: Yeast assay (assays described in Lista et al.); format: cell-based, Saccharomyces cerevisiae
Description: A yeast-based (Saccharomyces cerevisiae) assay that recapitulates all the aspects of the GAr-based inhibition of translation, including the GAr-length dependency, has been developed, that allowed understanding the mechanisms of GAr-mediated mRNA translation—suppression in cis, as well as the cellular factors involved (Lista et al. Biotechnol J 2015, 10, 1670-1681). This assay was successfully used to identify small molecular weight compounds that can stimulate EBNA1 expression both in yeast and mammalian cells and that relieve GAr-based limitation of antigen presentation (Voisset et al. Dis Model Mech 2014, 7, 435-444).
Compounds 1a, 2a, 4a, 5a, 7a, 10a and 11a were also tested in the various assay described in Lista et al. (Nat Commun 2017, 8, 16043).

G4-RNA EBNA1 = assay: HT-G4-FID assay: Thiazole Orange displacement from G4-RNA; format: binding, Epstein-Barr virus; conditions: for DC50: K+-100 buffer, pH 7.3, triplicate assays; for affinity for the G-quadruplex structure of EBNA1 (in words, FID data): conclusion from Table 1
Experimental: This assay is based on the displacement of a fluorescent indicator (Thiazole Orange, hereinafter TO) from a G4-RNA structure (RNA G-quadruplex of EBNA1) by a putative ligand such as the compounds of the invention (see FIG. 1). This displacement is quantified as % TO displacement. The percentage of TO displacement is calculated from the fluorescence intensity (F) in the presence of a putative ligand, using:
[formula] where F0 is fluorescence intensity of the probe (TO) bound to RNA without added ligand. The percentage of displacement is then plotted as a function of the concentration of added ligand. The RNA affinity of putative ligands is evaluated using the concentration of a ligand required to decrease the fluorescence of the probe by 50% (noted DC50), which is determined graphically from non-linear fitting of the displacement curve. […] 2. Materials and Reagents
Thiazole Orange (TO) and cacodylic acid were purchased from Aldrich and used without further purification. The oligoribonucleotide EBNA1 [5′-r(GGGGCAGGAGCAGGAGGA)-3′] (SEQ ID no 1) purified by reversed-phase HPLC was purchased from Eurogentec.
Stock solutions of the ligands (2 mM in DMSO (dimethylsulfoxyde)) were used for G4-FID assay, unless otherwise stated, and were stored at −20° C. Stock solutions of TO (2 mM in DMSO) were used for G4-FID assay. Fluorescent probe powders and solutions were stored and used, protected from light and used as aliquots to avoid freeze-thaw cycles. HT-G4-FID measurements were performed on a FLUOstar Omega microplate reader (BMG Labtech) with 96-well Non-Binding Surface black with black bottom polystyrene microplates (Corning ref 3650).
For HT-G4-FID assay, the oligonucleotide was dissolved in K^+−100-buffer (10 mM lithium cacodylate, pH 7.3, 100 mM KCl, 1 mM EDTA, 1% DMSO). Oligonucleotide concentrations were determined on the basis of their absorbance at 260 nm. Prior to use, the oligonucleotide was pre-treated by heating at 95° C. for 5 min followed by a slow cooling to 25° C.
Each G4-FID assay is performed in a 96-well microplates. […] The microplate is filled with (a) K^+−100 solution (qs for 200 μL) (b) 10 μL of a solution of pre-folded oligonucleotides (5 μM) and TO (10 μM-2 eq) and (c) an extemporaneously prepared 5 μM ligand solution in K^+−100 buffer (0 to 100 μL along the line of the microplate, i.e., from column […]: 0, 0.125, 0.25, 0.375, 0.5, 0.625, 0.75, 1.0, 1.25, 1.5, 2.0 and 2.5 μM) (see Largy et al., Anal Bioanal Chem 2011, 400, 34193427). After 5 min of orbital shaking at 500 rpm, fluorescence intensity is measured using the following experimental parameters: positioning delay: 0.5 s, 20 flashes per well, emission/excitation filters (nm): 485/520, gain adjusted at 80% of the fluorescence from the most fluorescent well (i.e., a well from column A).
Results are shown in Table 1 below (lower DC50 values indicate higher affinity of compounds to the G4-RNA structure of EBNA1).

quadruplex RNA F-EBNA1-T = assay: FRET-melting assay; format: binding, Epstein-Barr virus; conditions: for ΔTm, ligand + 3 μM ds26 / ΔTm, ligand + 10 μM ds26 / ΔTm, ligand alone: F-EBNA1-T 0.2 μM, ligand 1.0 μM, K+10 buffer; for ΔTm, ligand + 3 μM ds26: competitor DNA ds26 3 μM (15 eq); for ΔTm, ligand + 10 μM ds26: competitor DNA ds26 10 μM (50 eq); for ΔTm, ligand alone: no competitor; for affinity for the G-quadruplex structure of EBNA1 (in words, FRET-melting data): conclusion from Table 2
Description: The FRET-melting assay is based on thermal denaturation of G4-ARN monitored by fluorescence due to the phenomenon of Förster Resonance Energy Transfer (FRET). This method uses quadruplex-forming RNA sequence dual-labeled with two different fluorophores: a donor (fluorescein, or FAM) and an acceptor (tetramethylrhodamine, or TAMRA). When RNA is folded into G-quadruplex (G4) structure, fluorescence of the donor fluorophore is weak due to strong energy transfer (FRET) to the neighboring acceptor fluorophore. Upon thermal denaturation, the quadruplex unfolds and the fluorophores are separated, leading to decrease of the FRET effect and increase of the fluorescence of the donor (see FIG. 2). By following the fluorescence of the donor as a function of temperature, a melting curve of the G-quadruplex RNA can be obtained, which allows determining the temperature of denaturation at which 50% of the quadruples is unfolded (T1, FIG. 3).
The FRET-melting assay allows assessing the affinity of small molecules (ligands) for the G4-RNA. The addition of a G4-ligand stabilizes the G-quadruplex structure and increases the denaturation temperature. The temperature of denaturation in the presence of ligands (T2) can be compared with that obtained in the absence of ligands (T1). The value of ΔTm (ΔTm=T2−T1) represents a measure of the affinity of the compounds of the invention (ligand). Generally, values of ΔTm>20° C. correspond to ligands of high affinity.
The dual-labeled oligoribonucleotide EBNA1 [5′-FAM-r(GGGGCAGGAGCAGGAGGA)-TAMRA-3′] (SEQ ID no 2) purified by reversed-phase HPLC was purchased from Eurogentec. The donor fluorophore was 6-carboxyfluorescein (FAM) and the acceptor fluorophore was 6-carboxytetramethylrhodamine (TAMRA).
Stock solutions of the ligands (2 mM in DMSO) were used for FRET-melting assay, unless otherwise stated, and were stored at −20° C. FRET-melting measurements are performed on 7900HT Fast Real-Time PCR System (Applied Biosystems) with Microamp Fast optical 96-well reaction plate (Applied Biosystems).
Preparation of Oligonucleotides For FRET-melting assay, oligoribonucleotide F-EBNA1-T was dissolved in K^+10 buffer (10 mM lithium cacodylate buffer, pH 7.3, supplemented with 10 mM KCl and 90 mM LiCl).
Prior to use, all oligonucleotides were pre-treated by heating at 95° C. for 5 min, then rapidly cooled to 4° C. to favor the intramolecular folding by kinetic trapping. Duplex-DNA ds26 (5′CAA-TCG-GAT-CGA-ATT-CGA-TCC-GAT-TG-3′) (SEQ ID no 3) was prepared by heating this self-complementary strand at 90° C. for 5 min in K^+10 buffer followed by a slow cooling over 6 h.
FRET-melting assay is performed in 96-well plates on real time PCR apparatus 7900HT Fast Real-Time PCR System using the heating ramp as follow: 5 min at 25° C., then increase of 0.5° C. every minute until 95° C. Each experimental condition was tested in duplicated in a volume of 25 μL for each sample. The 96-well plates (Applied Biosystems) were prepared by aliquoting the annealed RNA (24 μL of 0.21 μM solution in K^+10 buffer) into each well, followed by 1 μL of ligand solution (25 μM in K^+10 buffer). For competition experiments, duplex competitors were added to 200 nM quadruplex sequences at final concentrations of 3.0 μM (15 eq) and 10.0 μM (50 eq), with a total reaction volume of 25 μL, with the labeled oligoribonucleotide (0.2 μM) and the ligand (1.0 μM). Measurements were made with excitation at 492 nm and detection at 516 nm. The change in the melting temperature in the presence of 1.0 μM putative ligand, ΔTm (1.0 μM), was calculated from at least two experiments by subtraction of the blank from the averaged melting temperature of each compound (1.0 μM).
The results are shown in FIG. 4 and in Table 2 below (higher ΔTm values indicate higher affinity of the compounds to G4-RNA structure of EBNA1).

| Compound | result in the yeast assay [1] | DC50 (G4-RNA EBNA1) | affinity for the G-quadruplex structure of EBNA1 (in words, FID data) (G4-RNA EBNA1) | ΔTm, ligand + 3 μM ds26 (quadruplex RNA F-EBNA1-T) | ΔTm, ligand + 10 μM ds26 (quadruplex RNA F-EBNA1-T) | ΔTm, ligand alone (quadruplex RNA F-EBNA1-T) | affinity for the G-quadruplex structure of EBNA1 (in words, FRET-melting data) (quadruplex RNA F-EBNA1-T) |
| --- | --- | --- | --- | --- | --- | --- | --- |
| C[n+]1ccc(C=NNC(=O)c2cccc(C(=O)NN=Cc3cc[n+](C)cc3)n2)cc1.[I-].[I-] [Compound 1a, N′^2,N′^6-Bis[(1-methylpyridinium-4-yl)methylene]pyridine-2,6-dicarbohydrazide iodide] | positive results | – | – | – | – | – | – |
| O=C(NN=Cc1cc[n+](Cc2ccccc2)c2ccccc12)c1cccc(C(=O)NN=Cc2cc[n+](Cc3ccccc3)c3ccccc23)n1.[Br-].[Br-] [Compound 2c, N′^2,N′^6-Bis[(1-benzylquinolinium-4-yl)methylene]pyridine-2,6-dicarbohydrazide bromide] | – | 390 ± 20 nM | particularly high affinity | 11.4 ± 0.6 °C | 9.6 ± 0.2 °C | 10.1 ± 0.9 °C | – |
| CC[n+]1cccc2cc(C=NNC(=O)c3cccc(C(=O)NN=Cc4ccc5c(ccc[n+]5CC)c4)n3)ccc21.[I-].[I-] [Compound 3b, N′^2,N′^6-Bis[(1-ethylquinolinium-6-yl)methylene]pyridine-2,6-dicarbohydrazide iodide] | – | 740 ± 30 nM | – | 7.6 ± 0.5 °C | 7.4 ± 0.3 °C | 5.9 ± 0.1 °C | – |
| O=C(NN=Cc1ccc2c(ccc[n+]2Cc2ccccc2)c1)c1cccc(C(=O)NN=Cc2ccc3c(ccc[n+]3Cc3ccccc3)c2)n1.[Br-].[Br-] [Compound 3c, N′^2,N′^6-Bis[(1-benzylquinolinium-6-yl)methylene]pyridine-2,6-dicarbohydrazide bromide] | – | 720 ± 30 nM | – | 12.2 ± 0.2 °C | 12.0 ± 0.2 °C | 10.4 ± 0.3 °C | – |
| CC[n+]1cccc2cc(C=NNC(=O)c3ccc4ccc(C(=O)NN=Cc5ccc6c(ccc[n+]6CC)c5)nc4n3)ccc21.[I-].[I-] [Compound 9b, N′^2,N′^7-Bis[(1-ethylquinolinium-6-yl)methylene]-1,8-naphthyridine-2,7-dicarbohydrazide iodide] | – | 800 ± 10 nM | – | 10.3 ± 0.2 °C | 8.8 ± 0.2 °C | 11.8 ± 0.1 °C | – |
| O=C(NN=Cc1ccc2c(ccc[n+]2Cc2ccccc2)c1)c1ccc2ccc(C(=O)NN=Cc3ccc4c(ccc[n+]4Cc4ccccc4)c3)nc2n1.[Br-].[Br-] [Compound 9c, N′^2,N′^7-Bis[(1-benzylquinolinium-6-yl)methylene]-1,8-naphthyridine-2,7-dicarbohydrazide bromide] | – | 1090 ± 100 nM | – | 12.3 ± 0.4 °C | 10.0 ± 1.7 °C | 13.1 ± 0.6 °C | – |
| O=C(NN=Cc1cc[n+](Cc2ccccc2)c2ccccc12)c1ccc2ccc3ccc(C(=O)NN=Cc4cc[n+](Cc5ccccc5)c5ccccc45)nc3c2n1.[Br-].[Br-] [Compound 11c, N′^2,N′^9-Bis[(1-benzylquinolinium-4-yl)methylene]-1,10-phenanthroline-2,9-dicarbohydrazide bromide] | – | 340 ± 20 nM | particularly high affinity | 20.3 ± 0.4 °C | 17.0 ± 0.8 °C | 20.1 ± 0.3 °C | particularly high affinity |
| CC[n+]1cccc2cc(C=NNC(=O)c3ccc4ccc5ccc(C(=O)NN=Cc6ccc7c(ccc[n+]7CC)c6)nc5c4n3)ccc21.[I-].[I-] [Compound 12b, N′^2,N′^9-Bis[(1-ethylquinolinium-6-yl)methylene]-1,10-phenanthroline-2,9-dicarbohydrazide iodide] | – | 590 ± 30 nM | – | 25.9 ± 0.4 °C | 25.1 ± 0.8 °C | 28.5 ± 1.1 °C | particularly high affinity |
| O=C(NN=Cc1ccc2c(ccc[n+]2Cc2ccccc2)c1)c1ccc2ccc3ccc(C(=O)NN=Cc4ccc5c(ccc[n+]5Cc5ccccc5)c4)nc3c2n1.[Br-].[Br-] [Compound 12c, N′^2,N′^9-Bis[(1-benzylquinolinium-6-yl)methylene]-1,10-phenanthroline-2,9-dicarbohydrazide bromide] | – | 650 ± 60 nM | – | 25.0 ± 0.7 °C | 22.7 ± 1.5 °C | 25.3 ± 1.3 °C | particularly high affinity |
